Usually AC50 stands for the concentration at which the activity in the assay is half-maximal.

One assay deals with PKR(G332S) (Homo sapiens, UniProt P30613, G332S). Briefly: Luminescence Biochemical Assay (Kinase Glo Plus), PKR G332S mutant. The conditions noted are these: with FBP; for activation at 1.54 µM: 1.54 μM compound, read-out: AC50 LUM KGP FBP % Fold@1.54 μM mean; for AC50: read-out: AC50 LUM KGP FBP AC50 μM gmean (column A); for Emax: read-out: AC50 LUM KGP FBP MAX % FOLD mean. (Kinase-Glo measures the ATP left after a reaction by luminescence.)

In the next assay the target is PKR(R510Q) (Homo sapiens, UniProt P30613, R510Q). Kind of assay: Luminescence Biochemical Assay (Kinase Glo Plus), PKR R510Q mutant. The following applies: without FBP; for activation at 1.54 µM: 1.54 μM compound, read-out: AC50 LUM KGP woFBP % Fold@1.54 μM mean; for AC50: read-out: AC50 LUM KGP woFBP AC50 μM gmean; for Emax: read-out: AC50 LUM KGP woFBP MAX % FOLD mean.

For the next assay, the target named is PKR(wt) (Homo sapiens, UniProt P30613). Briefly: Luminescence Biochemical Assay (Kinase Glo Plus), wild type PKR. The following applies: without FBP; for activation at 1.54 µM: 1.54 μM compound, read-out: AC50 LUM KGP woFBP % Fold@1.54 μM mean; for AC50: read-out: AC50 LUM KGP woFBP AC50 μM gmean; for Emax: read-out: AC50 LUM KGP woFBP MAX % FOLD mean.
PKR(wt), sequence (P30613 whole entry): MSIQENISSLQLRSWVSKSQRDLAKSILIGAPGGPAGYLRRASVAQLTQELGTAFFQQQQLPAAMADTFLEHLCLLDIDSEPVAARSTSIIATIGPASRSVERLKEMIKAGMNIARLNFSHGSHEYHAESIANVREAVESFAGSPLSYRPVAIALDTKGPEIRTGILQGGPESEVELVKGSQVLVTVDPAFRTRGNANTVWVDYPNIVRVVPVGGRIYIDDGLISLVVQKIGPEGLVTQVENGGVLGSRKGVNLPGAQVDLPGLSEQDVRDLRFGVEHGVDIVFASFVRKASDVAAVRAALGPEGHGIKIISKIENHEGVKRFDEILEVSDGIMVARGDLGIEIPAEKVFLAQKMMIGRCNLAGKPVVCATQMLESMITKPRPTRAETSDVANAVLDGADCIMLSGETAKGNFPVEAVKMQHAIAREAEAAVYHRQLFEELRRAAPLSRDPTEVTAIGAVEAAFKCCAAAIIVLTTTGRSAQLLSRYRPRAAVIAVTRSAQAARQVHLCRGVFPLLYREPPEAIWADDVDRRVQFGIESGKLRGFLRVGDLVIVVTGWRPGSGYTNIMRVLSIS

PKR(G332S), sequence (P30613 whole entry G332S): as the sequence (P30613 whole entry) above, with G332S counted along it
PKR(R510Q), sequence (P30613 whole entry R510Q): as the sequence (P30613 whole entry) above, with R510Q counted along it

Turning to `O=C(N1CCOCC1)N1CC2=C(C1)CN(S(=O)(=O)c1ccc3ncsc3c1)C2` [Example 6-1, (5-(benzo[d]thiazol-6-ylsulfonyl)-3,4,5,6-tetrahydropyrrolo[3,4-c]pyrrol-2(1H)-yl)(morpholino)methanone], on PKR(G332S), the activation at 1.54 µM fell in the range of 75 to 250%, the AC50 was in the range of 1 to 40 µM and the Emax fell in the range of 75 to 250%. Moreover, on PKR(R510Q), the activation at 1.54 µM was in the range of 75 to 250%, the AC50 was 1 to 40 µM and the Emax lay in the range of 250 to 500%. Moreover, at PKR(wt), the activation at 1.54 µM is 75 to 250%, the AC50 lay within 1 to 40 µM and the Emax was in the range of 250 to 500%.

As for `O=C(C(O)c1ccc(C(F)(F)F)cc1)N1CC2=C(C1)CN(S(=O)(=O)c1ccc(OC(F)F)cc1)C2` (stereo not drawn) [Example 18-32, 1-{5-[4-(Difluoromethoxy)benzenesulfonyl]-1H,2H,3H,4H,5H,6H-pyrrolo[3,4-c]pyrrol-2-yl}-2-hydroxy-2-[4-(trifluoromethyl)phenyl]ethan-1-one], on PKR(G332S), the activation at 1.54 µM was in the range of 75 to 250%, the AC50 was 0.1 to 1 µM and the Emax fell in the range of 75 to 250%. At PKR(R510Q), the activation at 1.54 µM was 75 to 250%, the AC50 lay in the range of 0.1 to 1 µM and the Emax was 250 to 500%. At PKR(wt), the activation at 1.54 µM fell in the range of 75 to 250%, the AC50 was 0.1 to 1 µM and the Emax lay within 250 to 500%.

Consider `COc1ccccc1CNC(=O)N1CC2=C(C1)CN(S(=O)(=O)c1ccc3ncsc3c1)C2` [Example 21-18, 5-(1,3-Benzothiazole-6-sulfonyl)-N-[(2-methoxyphenyl)methyl]-1H,2H,3H,4H,5H,6H-pyrrolo[3,4-c]pyrrole-2-carboxamide], for which, at PKR(G332S), the activation at 1.54 µM lay in the range of 75 to 250%, the half-maximal activity concentration (AC50) was at most 0.1 µM and the Emax was 75 to 250%. Besides, at PKR(R510Q), the activation at 1.54 µM was 250 to 50000%, the AC50 fell in the range of 0.1 to 1 µM and the Emax fell in the range of 250 to 500%. Besides, at PKR(wt), the activation at 1.54 µM is 250 to 50000%, the concentration at half-maximal activity (AC50) is 0.1 to 1 µM and the Emax is 250 to 500%.

In the case of `O=C([C@H](O)c1ccc(F)cc1)N1CC2=C(C1)CN(S(=O)(=O)c1cccnc1)C2` [Example 18-62, (2R)-2-(4-fluorophenyl)-2-hydroxy-1-[5-(pyridine-3-sulfonyl]-1H,2H,3H,4H,5H,6H-pyrrolo[3,4-c]pyrrol-2-yl]ethan-1-one], on PKR(G332S), the activation at 1.54 µM lay within 75 to 250%, the AC50 lay within 1 to 40 µM and the Emax was in the range of 75 to 250%. On PKR(R510Q), the activation at 1.54 µM lay in the range of 75 to 250%, the concentration at half-maximal activity (AC50) is 1 to 40 µM and the Emax lay in the range of 250 to 500%. Further, at PKR(wt), the activation at 1.54 µM lay in the range of 75 to 250%, the half-maximal activity concentration (AC50) was 0.1 to 1 µM and the Emax lay in the range of 75 to 250%.

For the compound `O=C([C@@H](O)c1ccc2c(c1)CNCC2)N1CC2=C(C1)CN(S(=O)(=O)c1ccc(OC(F)F)cc1)C2` (single isomer, unassigned) [Example 11-1], at PKR(G332S), the activation at 1.54 µM was in the range of 75 to 250%, the AC50 lay in the range of 1 to 40 µM and the Emax lay within 75 to 250%. Further, on PKR(R510Q), the activation at 1.54 µM is 250 to 50000%, the AC50 lay within 0.1 to 1 µM and the Emax is 250 to 500%. Besides, at PKR(wt), the activation at 1.54 µM was in the range of 75 to 250%, the AC50 was in the range of 1 to 40 µM and the Emax was 75 to 250%.

As for `O=C([C@H](O)c1ccc(F)cc1)N1CC2=C(C1)CN(S(=O)(=O)c1ccc(OC(F)F)cc1)C2` [Example 18-31, (2R)-1-{5-[4-(difluoromethoxy)benzenesulfonyl]-1H,2H,3H,4H,5H,6H-pyrrolo[3,4-c]pyrrol-2-yl}-2-(4-fluorophenyl)-2-hydroxyethan-1-one], at PKR(G332S), the activation at 1.54 µM lay within 75 to 250%, the AC50 was at most 0.1 µM and the Emax lay within 75 to 250%. Also, on PKR(R510Q), the activation at 1.54 µM fell in the range of 250 to 50000%, the AC50 is at most 0.1 µM and the Emax is 250 to 500%. Moreover, on PKR(wt), the activation at 1.54 µM was in the range of 250 to 50000%, the AC50 was at most 0.1 µM and the Emax lay within 250 to 500%.

Regarding `O=C([C@H](O)c1ccccc1)N1CC2=C(C1)CN(S(=O)(=O)c1cccnc1)C2` [Example 4-1, (2R)-2-hydroxy-2-phenyl-1-[5-(pyridine-3-sulfonyl)-1H,2H,3H,4H,5H,6H-pyrrolo[3,4-c]pyrrol-2-yl]ethan-1-one], the activation at 1.54 µM on PKR(G332S), on PKR(R510Q) and on PKR(wt) was 75 to 250% each time. Moreover, the AC50 was 0.1 to 1 µM on PKR(G332S), 1 to 40 µM at PKR(R510Q) and 0.1 to 1 µM at PKR(wt). Further, the Emax at PKR(G332S) was 75 to 250%; at PKR(R510Q), 250 to 500%; at PKR(wt) it was 75 to 250%.

As for `COc1ccc(CNC(=O)N2CC3=C(C2)CN(S(=O)(=O)c2ccc4ncsc4c2)C3)cc1` [Example 21-16, 5-(1,3-Benzothiazole-6-sulfonyl)-N-[(4-methoxyphenyl)methyl]-1H,2H,3H,4H,5H,6H-pyrrolo[3,4-c]pyrrole-2-carboxamide], at PKR(G332S), the activation at 1.54 µM fell in the range of 75 to 250%, the half-maximal activity concentration (AC50) was at most 0.1 µM and the Emax is 75 to 250%. Also, at PKR(R510Q), the activation at 1.54 µM lay within 250 to 50000%, the AC50 was in the range of 0.1 to 1 µM and the Emax lay within 250 to 500%. Besides, at PKR(wt), the activation at 1.54 µM was 250 to 50000%, the AC50 was at most 0.1 µM and the Emax fell in the range of 250 to 500%.

On to `O=C(Cc1ncccn1)N1CC2=C(C1)CN(S(=O)(=O)c1ccc(OC(F)F)cc1)C2` [Example 18-28, 1-{5-[4-(Difluoromethoxy)benzenesulfonyl]-1H,2H,3H,4H,5H,6H-pyrrolo[3,4-c]pyrrol-2-yl}-2-(pyrimidin-2-yl)ethan-1-one], for which, on PKR(G332S), the activation at 1.54 µM lay within 75 to 250%, the half-maximal activity concentration (AC50) was in the range of 0.1 to 1 µM and the Emax is 75 to 250%. At PKR(R510Q), the activation at 1.54 µM lay within 250 to 50000%, the AC50 was 1 to 40 µM and the Emax lay within 250 to 500%. Moreover, at PKR(wt), the activation at 1.54 µM fell in the range of 250 to 50000%, the AC50 fell in the range of 1 to 40 µM and the Emax fell in the range of 250 to 500%.

Take `O=C(Cc1ccc[nH]1)N1CC2=C(C1)CN(S(=O)(=O)c1cccnc1)C2` [Example 18-73, 1-[5-(Pyridine-3-sulfonyl)-1H,2H,3H,4H,5H,6H-pyrrolo[3,4-c]pyrrol-2-yl]-2-(1H-pyrrol-2-yl)ethan-1-one]: on PKR(G332S), the activation at 1.54 µM was in the range of 75 to 250%, the AC50 fell in the range of 1 to 40 µM and the Emax lay in the range of 75 to 250%. Also, at PKR(R510Q), the activation at 1.54 µM fell in the range of 75 to 250%, the half-maximal activity concentration (AC50) fell in the range of 1 to 40 µM and the Emax fell in the range of 75 to 250%. Besides, on PKR(wt), the activation at 1.54 µM was 75 to 250%, the AC50 was 1 to 40 µM and the Emax was 75 to 250%.

`O=C(Cc1ccc(F)cc1F)N1CC2=C(C1)CN(S(=O)(=O)c1cccnc1)C2` [Example 18-66, 2-(2,4-Difluorophenyl)-1-[5-(pyridine-3-sulfonyl)-1H,2H,3H,4H,5H,6H-pyrrolo[3,4-c]pyrrol-2-yl]ethan-1-one]: the activation at 1.54 µM at PKR(G332S), at PKR(R510Q) and at PKR(wt) was 75 to 250% each time. Also, the concentration at half-maximal activity (AC50) on PKR(G332S), on PKR(R510Q) and at PKR(wt) was 1 to 40 µM in each case. In addition, the Emax was in the range of 75 to 250% at PKR(G332S), 250 to 500% on PKR(R510Q) and 250 to 500% at PKR(wt).

For `O=C([C@H](O)c1ccc(F)cc1)N1CC2=C(C1)CN(S(=O)(=O)c1ccccn1)C2` [Example 18-63, (2R)-2-(4-fluorophenyl)-2-hydroxy-1-[5-(pyridine-2-sulfonyl)-1H,2H,3H,4H,5H,6H-pyrrolo[3,4-c]pyrrol-2-yl]ethan-1-one], at PKR(G332S), the activation at 1.54 µM lay in the range of 75 to 250%, the AC50 was 1 to 40 µM and the Emax is 75 to 250%. On PKR(R510Q), the activation at 1.54 µM lay in the range of 250 to 50000%, the AC50 lay in the range of 0.1 to 1 µM and the Emax fell in the range of 250 to 500%. Also, on PKR(wt), the activation at 1.54 µM was 75 to 250%, the AC50 lay in the range of 0.1 to 1 µM and the Emax lay within 250 to 500%.

Consider `O=C(NCc1ccc(F)cc1)N1CC2=C(C1)CN(S(=O)(=O)c1ccccn1)C2` [Example 21-41, N-[(4-fluorophenyl)methyl]-5-(pyridine-2-sulfonyl)-1H,2H,3H,4H,5H,6H-pyrrolo[3,4-c]pyrrole-2-carboxamide], for which, on PKR(G332S), the activation at 1.54 µM was 75 to 250%, the AC50 lay within 1 to 40 µM and the Emax fell in the range of 75 to 250%. On PKR(R510Q), the activation at 1.54 µM is 75 to 250%, the AC50 lay within 0.1 to 1 µM and the Emax was 75 to 250%. In addition, on PKR(wt), the activation at 1.54 µM lay in the range of 75 to 250%, the AC50 is 0.1 to 1 µM and the Emax is 250 to 500%.

As to `O=C(NCc1ccccc1F)N1CC2=C(C1)CN(S(=O)(=O)c1cccnc1)C2` [Example 21-37, N-[(2-fluorophenyl)methyl]-5-(pyridine-3-sulfonyl)-1H,2H,3H,4H,5H,6H-pyrrolo[3,4-c]pyrrole-2-carboxamide], at PKR(G332S), the activation at 1.54 µM fell in the range of 75 to 250%, the AC50 was in the range of 0.1 to 1 µM and the Emax fell in the range of 75 to 250%. Further, at PKR(R510Q), the activation at 1.54 µM lay in the range of 250 to 50000%, the AC50 was 0.1 to 1 µM and the Emax was 250 to 500%. Also, at PKR(wt), the activation at 1.54 µM fell in the range of 75 to 250%, the half-maximal activity concentration (AC50) was 0.1 to 1 µM and the Emax was in the range of 250 to 500%.

As for `O=C([C@H](O)c1ccccc1)N1CC2=C(C1)CN(S(=O)(=O)c1ccc(F)c(F)c1)C2` [Example 18-53, (2R)-1-[5-(3,4-difluorobenzenesulfonyl)-1H,2H,3H,4H,5H,6H-pyrrolo[3,4-c]pyrrol-2-yl]-2-hydroxy-2-phenylethan-1-one], at PKR(G332S), the activation at 1.54 µM was 75 to 250%, the half-maximal activity concentration (AC50) was 1 to 40 µM and the Emax lay in the range of 75 to 250%. Besides, on PKR(R510Q), the activation at 1.54 µM is 75 to 250%, the concentration at half-maximal activity (AC50) fell in the range of 0.1 to 1 µM and the Emax was in the range of 75 to 250%. Also, at PKR(wt), the activation at 1.54 µM was 75 to 250%, the concentration at half-maximal activity (AC50) was in the range of 0.1 to 1 µM and the Emax lay within 75 to 250%.

For the origin of these results see patent US12122778B2, “Activating pyruvate kinase R” (Novo Nordisk Health Care AG, priority 2018, dated 2024).
